Experimental data: patent publication US20250289879A1, “THERAPEUTIC MODULATION OF GENES IN MYELOID LINEAGE CELLS AND USES THEREOF IN OPHTHALMOLOGY” (The Children's Medical Center Corporation, priority 2022, published 2025)

Legend:
SOCS3 = conditions: reported (refs 56, 57, 49); cited from earlier work
OIR mice = assay: Oxygen-induced retinopathy (OIR) mouse model, NV and VO areas on retinal flat mounts; format: in vivo
Description: OIR was carried out using neonatal mice as described previously (Smith et al., 1994). Briefly, mouse pups with nursing female mice were exposed to 75% oxygen from postnatal day (P) 7 to 12, then returned to room air until to P17 for phenotypical analysis and gene expression at indicated time. For phenotypical analysis, the retinas were collected at P17, dissected, and stained with fluorescent dye conjugated-Griffonia Simplicifolia Isolectin IB4 (Invitrogen) overnight and flat-mounted. The avascular (vasoobliteration, VO) and pathological neovascularization (NV) areas were quantified (Connor et al., 2009) by masked researchers using Image J (National Institutes of Health, imagej.nih.gov/ij/) and Adobe Photoshop (Adobe Systems). The exclusion criteria for the OIR mouse model was used as described previously. Mice with bodyweight less than 5 grams at P17 were excluded from the study (Stahl et al., 2010).
OIR was carried out using neonatal mice as described previously^81. Briefly, mouse pups with nursing female mice were exposed to 75% oxygen from postnatal day (P) 7 to 12, then returned to room air until P17 for phenotypical analysis and gene expression analysis at indicated times. For phenotypical analysis, the retinas were collected at P17, dissected, and stained with fluorescent dye conjugated with Griffonia Simplicifolia Isolectin IB4 (Invitrogen) overnight and flat-mounted. The avascular (vaso-obliteration, VO) and pathological NV areas were quantified^82 by masked researchers using Image J (National Institutes of Health) and fully automated deep learning segmentation method^83. The exclusion criteria for the OIR mouse model were used as previously described^84.
SOCS3 agonist, naringenin (400 mg/kg/day, gavage) 49, and control reagents were administrated to C57BL/6J OIR mice from P12 to P16. SOCS3 peptidomimetic and negative control (NC) peptides were synthesized and purified as described 74. […] The identity and purity of main products were evaluated by LC-MS and purified compounds were lyophilized and stored at −20° C. until use. […]

laser-induced CNV mice = conditions: previously reported (ref 49), vs control treatment; cited from earlier work

Q: What does the source list for O=C1C[C@@H](c2ccc(O)cc2)Oc2cc(O)cc(O)c21 [naringenin]?
A: SOCS3 expression, in words (SOCS3): induces SOCS3 expression; effect on retinal neovascularization (NV), in words (OIR mice; OIR retinas at P17, vs control treatment): significantly reduced NV; effect on vaso-obliteration (VO) / blood vessel loss, in words (OIR mice; OIR retinas, vs control treatment): without influencing VO; reduction of NV at P17 compared to controls (OIR mice; naringenin treatment from P12 to P16, 400 mg/kg/day, C57BL/6J OIR mice): about 50%; effect on laser-induced CNV, in words (laser-induced CNV mice): significantly suppresses laser-induced CNV
